Values joined by “and” are separate entries in the source; they are usually repeats but may differ in a detail not shown here. Identical values can stand only once. Numbered stars: 1 amine (or outer) side, 2 acyl side, 3 side chain; on linkers, the order of the positions; unused ones are H or OH. Bridge positions count the residues as written; N and C are the ends. Square brackets hold non-standard residues; d marks the D form. Ends that are not written are not given here. Peptide text beside a SMILES is read from it. * marks the point of attachment. DOTA = O=C(O)CN1CCN(CC(=O)O)CCN(CC(=O)*)CCN(CC(=O)O)CC1; d2Nal(3S-Me) = C[C@@H](c1ccc2ccccc2c1)[C@@H](N)C(=O)O; X1 = C[C@H](c1ccc2ccccc2c1)[C@H](N[*:1])C(=O)[*:2]; Phe(4-NH2) = Nc1ccc(C[C@H](N)C(=O)O)cc1; X2 = NC(=O)N[C@@H](CS[*:2])C(=O)[*:1]; GABA = NCCCC(=O)O
biological target: T1, hSSTR4 (Homo sapiens, UniProt P31391); test: Displacement of 125I-[Leu8,D-Trp22,Tyr25]SRIF-28 from cloned receptor, membrane pellet autoradiography; type: binding; settings: not given
T1 construct: expressed in transfected cells; host or cells: CHO-K1 cells and CCL39 cells
Procedure: (§1) In vitro Bioassay: The effects of the various somatostatin analogs are tested in vitro for their ability to bind to isolated cloned receptors expressed on CHO-K1 cells and CCL39 cells. CHO-K1 cells are grown in Ham's F-12 medium, and CCL39 cells are grown in Dulbecco's modified Eagle's medium/Ham's F-12(1:1) mix, supplemented with 10% fetal bovine serum, 100 U/ml penicillin and 100 μg/ml streptomycin, in humidified air containing 5% CO2 at 37° C.
(§2) Cells are washed twice with and scraped into ice-cold 0.05 M Tris-HCl (pH 7.4), collected by centrifugation, and homogenized using a rotor/stator/system in the same buffer. After centrifugation at 120 g for 5 min at 4° C., the supernatant is collected and centrifuged again at 48,000 g for 30 min at 4° C. The resulting pellet is resuspended in ice-cold Tris buffer, transferred into a microfuge tube, and centrifuged at 20,000 g for 15 min at 4° C. After withdrawal of the supernatant, the membrane pellet is stored at −80° C.
Receptor autoradiography is performed on 20 μm thick cryostat sections of the membrane pellets, mounted on microscope slides, and then stored at −20° C. […] Increasing concentrations of the unlabeled peptide are used ranging from 0.1-1000 nM. […] IC50 values are calculated after quantification of the data using a computer-assisted image processing system as known in this art.
(§3) The numbers in parentheses indicate the number of times the particular binding test was carried out.

T1 sequence (P31391 whole entry): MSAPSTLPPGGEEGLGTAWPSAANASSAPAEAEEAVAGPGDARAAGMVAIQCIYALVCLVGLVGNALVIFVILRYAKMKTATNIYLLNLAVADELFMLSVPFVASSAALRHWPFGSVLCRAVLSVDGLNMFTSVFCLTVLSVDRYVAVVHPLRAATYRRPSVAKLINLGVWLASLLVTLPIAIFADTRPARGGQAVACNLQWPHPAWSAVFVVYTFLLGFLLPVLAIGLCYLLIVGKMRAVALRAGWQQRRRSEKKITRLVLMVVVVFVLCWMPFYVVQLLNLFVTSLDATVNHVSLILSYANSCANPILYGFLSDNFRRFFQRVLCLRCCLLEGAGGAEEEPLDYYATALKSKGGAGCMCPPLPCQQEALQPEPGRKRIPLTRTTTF

Row | Compound | selectivity in binding to SSTR4 compared with the other 4 receptors (in words) | selectivity for SSTR4 over the closest other receptor
1 | C[C@@H]1NC(=O)[C@H](Cc2ccccc2)NC(=O)[C@@H](NC(=O)CN2CCN(CC(=O)O)CCN(CC(=O)O)CCN(CC(=O)O)CC2)CSSC[C@@H](C(=O)O)NC(=O)[C@H](Cc2ccccc2)NC(=O)[C@H]([C@@H](C)O)NC(=O)[C@H](CCCCN)NC(=O)[C@H](Cc2c[nH]c3ccccc23)NC1=O [Peptide 12C] ({DOTA}-CFAWKTFC-OH; disulfide 1-8) | continues to show selectivity in binding to hSSTR4 | 
2 | C[C@@H]1NC(=O)[C@H](Cc2ccccc2)NC(=O)[C@@H](NC(=O)CCCNC(=O)CN2CCN(CC(=O)O)CCN(CC(=O)O)CCN(CC(=O)O)CC2)CSSC[C@@H](C(=O)O)NC(=O)[C@H](Cc2ccccc2)NC(=O)[C@H]([C@@H](C)O)NC(=O)[C@H](CCCCN)NC(=O)[C@H](Cc2c[nH]c3ccccc23)NC1=O [Peptide 12D] ({DOTA-GABA}-CFAWKTFC-OH; disulfide 1-8) | continues to show selectivity in binding to hSSTR4 | 
3 | C[C@@H]1NC(=O)[C@H](Cc2ccccc2)NC(=O)[C@@H](N)CSSC[C@@H](C(=O)O)NC(=O)[C@H](Cc2ccccc2)NC(=O)[C@H]([C@@H](C)O)NC(=O)[C@H](CCCCN)NC(=O)[C@@H](Cc2c[nH]c3ccccc23)NC1=O [Peptide No. 11, (cyclo)H-Cys-Phe-Ala-D-Trp-Lys-Thr-Phe-Cys-OH] (H-CFA[dW]KTFC-OH; disulfide 1-8) | selectively binds to SSTR4 | 
4 | (cyclo)H-Cys-Phe-Ala-Trp-Lys-Thr-Gly-Cys-OH (H-CFAWKTGC-OH; disulfide 1-8 (inferred)) [Peptide 12G] | selective in binding to hSSTR4 | 
5 | (cyclo)H-Cys-Phe-Ala-Trp-Lys-Thr-Val-Cys-OH (H-CFAWKTVC-OH; disulfide 1-8 (inferred)) [Peptide 12E] | selective in binding to hSSTR4 | 

Further lines, results first:

Row | selectivity in binding to SSTR4 compared with the other 4 receptors (in words) | selectivity for SSTR4 over the closest other receptor | Compound
6 |  | more than 100 times | C[C@H](c1ccc2ccccc2c1)[C@@H]1NC(=O)[C@H](Cc2ccc(O)cc2)NC(=O)[C@H](Cc2ccccc2)NC(=O)[C@H](N)CSSC[C@@H](C(=O)O)NC(=O)[C@H](Cc2ccccc2)NC(=O)[C@H]([C@@H](C)O)NC(=O)[C@H](CCCCN)NC1=O [Peptide No. 16A, (cyclo)H-D-Cys-Phe-Tyr-threo-(2S,3R)C^βMe-2Nal-Lys-Thr-Phe-Cys-OH] (H-[dC]FY[X1]KTFC-OH; disulfide 1-8)
7 | show selectivity for binding to SSTR4 |  | C[C@@H](O)[C@@H]1NC(=O)[C@H](CCCCN)NC(=O)[C@@H]([C@@H](C)c2ccc3ccccc3c2)NC(=O)[C@H](Cc2ccc(O)cc2)NC(=O)[C@H](Cc2ccccc2)NC(=O)[C@@H](N)CSSC[C@@H](C(=O)O)NC(=O)[C@H](Cc2ccccc2)NC1=O [Peptide No. 17, (cyclo)H-Cys-Phe-Tyr-threo-(2R,3S)C^βMe-2Nal-Lys-Thr-Phe-Cys-OH] (H-CFY[d2Nal(3S-Me)]KTFC-OH; disulfide 1-8)
8 | selective in binding to hSSTR4 |  | (cyclo)Cys-Phe-Val-Trp-Lys-Thr-Val-Cys-OH (CFVWKTVC-OH; disulfide 1-8 (inferred)) [Peptide No. 12F]
9 | selective in binding to hSSTR4 |  | (cyclo)H-Cys-Phe-Val-D-Trp-Lys-Thr-Phe-Cys-OH (H-CFV[dW]KTFC-OH; disulfide 1-8; SMILES CC(C)[C@@H]1NC(=O)[C@H](Cc2ccccc2)NC(=O)[C@@H](N)CSSC[C@@H](C(=O)O)NC(=O)[C@H](Cc2ccccc2)NC(=O)[C@H]([C@@H](C)O)NC(=O)[C@H](CCCCN)NC(=O)[C@@H](Cc2c[nH]c3ccccc23)NC1=O) [Peptide 11A]

same assay, conditions: inhibition of 125I-SRIF-28 radioligand binding, cloned human receptor

Row | Compound | IC50
10 | C[C@@H](O)[C@@H]1NC(=O)[C@H](CCCCN)NC(=O)[C@@H](Cc2c[nH]c3ccccc23)NC(=O)[C@H](Cc2ccc(N)cc2)NC(=O)[C@H](Cc2ccccc2)NC(=O)[C@@H](NC(N)=O)CSSC[C@@H](C(=O)O)NC(=O)[C@H](Cc2ccccc2)NC1=O [Peptide No. 4, (cyclo)Cbm-Cys-Phe-4Aph-D-Trp-Lys-Thr-Phe-Cys-OH] (F[Phe(4-NH2)][dW]KTFC-OH; linker N-7 via X2) | 1.1 ± 0.2 nM
11 | C[C@@H](O)[C@@H]1NC(=O)[C@H](CCCCN)NC(=O)[C@@H](Cc2c[nH]c3ccccc23)NC(=O)[C@H](Cc2ccc(N)cc2)NC(=O)[C@H](Cc2ccccc2)NC(=O)[C@@H](NC(=O)[C@@H](N)Cc2ccc(O)cc2)CSSC[C@@H](C(=O)O)NC(=O)[C@H](Cc2ccccc2)NC1=O [Peptide No. 7, (cyclo)H-Tyr-Cys-Phe-4Aph-D-Trp-Lys-Thr-Phe-Cys-OH] | 1.2 ± 0.3 nM
12 | C[C@@H](O)[C@@H]1NC(=O)[C@H](CCCCN)NC(=O)[C@H](Cc2c[nH]c3ccccc23)NC(=O)[C@H](Cc2ccc(N)cc2)NC(=O)[C@H](Cc2ccccc2)NC(=O)[C@@H](NC(=O)[C@H](Cc2ccc(O)cc2)NC(N)=O)CSSC[C@@H](C(=O)O)NC(=O)[C@H](Cc2ccccc2)NC1=O [Peptide No. 8, (cyclo)Cbm-Tyr-Cys-Phe-4Aph-Trp-Lys-Thr-Phe-Cys-OH] | ~1.2 nM and 1.2 nM
13 | C[C@@H](O)[C@@H]1NC(=O)[C@H](CCCCN)NC(=O)[C@H](Cc2c[nH]c3ccccc23)NC(=O)[C@H](Cc2ccc(N)cc2)NC(=O)[C@H](Cc2ccccc2)NC(=O)[C@@H](N)CSSC[C@@H](C(=O)O)NC(=O)[C@H](Cc2ccc(O)cc2)NC1=O [Peptide No. 9, (cyclo)H-Cys-Phe-4Aph-Trp-Lys-Thr-Tyr-Cys-OH] | 1.1 ± 0.2 nM
14 | C[C@@H]1NC(=O)[C@H](Cc2ccccc2)NC(=O)[C@@H](N)CSSC[C@@H](C(=O)O)NC(=O)[C@H](Cc2ccccc2)NC(=O)[C@H]([C@@H](C)O)NC(=O)[C@H](CCCCN)NC(=O)[C@@H](Cc2c[nH]c3ccccc23)NC1=O [Peptide No. 11, (cyclo)H-Cys-Phe-Ala-D-Trp-Lys-Thr-Phe-Cys-OH] (H-CFA[dW]KTFC-OH; disulfide 1-8) | 0.98 nM

Second part, the compound after the results:

Row | IC50 | Compound
15 | 3.5 ± 0.8 nM | C[C@@H]1NC(=O)[C@H](Cc2ccccc2)NC(=O)[C@@H](N)CSSC[C@@H](C(=O)O)NC(=O)[C@H](C)NC(=O)[C@H]([C@@H](C)O)NC(=O)[C@H](CCCCN)NC(=O)[C@H](Cc2c[nH]c3ccccc23)NC1=O [Peptide No. 12A] (H-CFAWKTAC-OH; disulfide 1-8)
16 | ~3.5 nM | C[C@@H]1NC(=O)[C@H](Cc2ccccc2)NC(=O)[C@@H](NC(=O)[C@@H](N)Cc2ccc(O)c(I)c2)CSSC[C@@H](C(=O)O)NC(=O)[C@H](Cc2ccccc2)NC(=O)[C@H]([C@@H](C)O)NC(=O)[C@H](CCCCN)NC(=O)[C@H](Cc2c[nH]c3ccccc23)NC1=O [Peptide No. 13A]
17 | 1.1 ± 0.2 nM | C[C@@H]1NC(=O)[C@H](Cc2ccccc2)NC(=O)[C@@H](NC(=O)[C@@H](N)Cc2ccc(O)cc2)CSSC[C@@H](C(=O)O)NC(=O)[C@H](Cc2ccccc2)NC(=O)[C@H]([C@@H](C)O)NC(=O)[C@H](CCCCN)NC(=O)[C@@H](Cc2c[nH]c3ccccc23)NC1=O [Peptide No. 14, (cyclo)H-Tyr-Cys-Phe-Ala-D-Trp-Lys-Thr-Phe-Cys-OH]
18 | 3.5 ± 0.5 nM | C[C@H](c1ccc2ccccc2c1)[C@@H]1NC(=O)[C@H](Cc2ccc(O)cc2)NC(=O)[C@H](Cc2ccccc2)NC(=O)[C@H](N)CSSC[C@@H](C(=O)O)NC(=O)[C@H](Cc2ccccc2)NC(=O)[C@H]([C@@H](C)O)NC(=O)[C@H](CCCCN)NC1=O [Peptide No. 16A, (cyclo)H-D-Cys-Phe-Tyr-threo-(2S,3R)C^βMe-2Nal-Lys-Thr-Phe-Cys-OH] (H-[dC]FY[X1]KTFC-OH; disulfide 1-8)

biological target: T2, hSSTR1 (Homo sapiens, UniProt P30872); test: as above; type: binding; settings: inhibition of 125I-SRIF-28 radioligand binding, cloned human receptor
T2 construct: expressed in transfected cells; host or cells: CHO-K1 cells and CCL39 cells
Procedure: as §1, §2
Receptor autoradiography is performed on 20 μm thick cryostat sections of the membrane pellets, mounted on microscope slides, and then stored at −20° C. […] […] […] IC50 values are calculated after quantification of the data using a computer-assisted image processing system as known in this art.
as §3

T2 sequence (P30872 whole entry): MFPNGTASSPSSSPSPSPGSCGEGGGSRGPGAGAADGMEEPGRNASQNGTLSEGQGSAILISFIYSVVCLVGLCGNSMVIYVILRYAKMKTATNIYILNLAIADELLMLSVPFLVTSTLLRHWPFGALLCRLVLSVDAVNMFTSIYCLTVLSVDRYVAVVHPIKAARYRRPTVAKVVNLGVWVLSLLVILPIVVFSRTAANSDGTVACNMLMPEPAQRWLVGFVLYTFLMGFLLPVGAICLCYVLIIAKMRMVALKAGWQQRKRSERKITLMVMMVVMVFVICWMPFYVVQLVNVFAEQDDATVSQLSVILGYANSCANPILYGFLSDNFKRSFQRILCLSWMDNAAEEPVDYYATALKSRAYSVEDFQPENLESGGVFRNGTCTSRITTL

Row | IC50 [nM] | Compound
19 | > 1000 | C[C@@H](O)[C@@H]1NC(=O)[C@H](CCCCN)NC(=O)[C@H](Cc2c[nH]c3ccccc23)NC(=O)[C@H](Cc2ccc(CN)cc2)NC(=O)[C@H](Cc2ccccc2)NC(=O)[C@@H](NC(=O)[C@@H](N)Cc2ccc(O)cc2)CSSC[C@@H](C(=O)O)NC(=O)[C@H](Cc2ccccc2)NC1=O [Peptide No. 15, (cyclo)H-Tyr-Cys-Phe-4 Amp-Trp-Lys-Thr-Phe-Cys-OH]
20 | > 1000 | C[C@@H](O)[C@@H]1NC(=O)[C@H](CCCCN)NC(=O)[C@H](Cc2c[nH]c3ccccc23)NC(=O)[C@H](Cc2ccc(CN)cc2)NC(=O)[C@H](Cc2ccccc2)NC(=O)[C@@H](NC(=O)[C@H](Cc2ccc(O)cc2)NC(N)=O)CSSC[C@@H](C(=O)O)NC(=O)[C@H](Cc2ccccc2)NC1=O [Peptide No. 15A, (cyclo)Cbm-Tyr-Cys-Phe-Amp-Trp-Lys-Thr-Phe-Cys-OH]
21 | > 10000 | C[C@H](c1ccc2ccccc2c1)[C@@H]1NC(=O)[C@H](Cc2ccc(O)cc2)NC(=O)[C@H](Cc2ccccc2)NC(=O)[C@H](N)CSSC[C@@H](C(=O)O)NC(=O)[C@H](Cc2ccccc2)NC(=O)[C@H]([C@@H](C)O)NC(=O)[C@H](CCCCN)NC1=O [Peptide No. 16A, (cyclo)H-D-Cys-Phe-Tyr-threo-(2S,3R)C^βMe-2Nal-Lys-Thr-Phe-Cys-OH] (H-[dC]FY[X1]KTFC-OH; disulfide 1-8)

From US7238775B2, “Receptor(SSTR4)-selective somatostatin analogs” (The Salk Institute for Biological Studies, priority 2002, dated 2007)
